Assay results from patent US20200361871A1 (Enterprise Therapeutics Ltd., priority 2018, published 2020).

Target: human TMEM16A (TMEM16Aabc variant) (Homo sapiens, UniProt Q5XXA6, DEL476-501, form not given)
Experiment: Automated whole-cell patch clamp (Qpatch) TMEM16A potentiator assay in FRT cells stably expressing human TMEM16A
Type: cell-based
Conditions: for % Potentiation @ 3.33 μM Avg: 3.33 μM solution of test compound, percentage increase of baseline TMEM16A current; for EC50: calculated EC50, Qpatch TMEM16A current at +70 mV
Excerpt: FIG. 1 is an example trace from a whole-cell patch clamp (Qpatch) TMEM16A potentiator assay as used in Biological Example 95 and illustrates the methodology used in the assay. In FIG. 1: S is Saline; V is Vehicle; #1 is Test Compound concentration #1; #2 is Test Compound concentration 2; #3 is Test Compound concentration 3; #4 is Test Compound concentration 4; #5 is Test Compound concentration #5; and R is Reference. The arrow in column V represents the baseline current, IBL. The arrows in each of the columns #1, #2, #3, #4, #5 and R represent I#[1], I#[2], I#[3], I#[4], I#[5] and I[Ref], which are the peak currents during the incubation periods for test compounds concentrations #1 to #5 and the Reference.
Fisher rat thyroid (FRT) cells stably expressing human TMEM16A (TMEM16Aabc variant; Dr Luis Galietta, Insituto Giannina, Italy) were cultured in T-75 flasks in Hams F-12 media with Coon's modification (Sigma) supplemented with 10% (v/v) foetal bovine serum, penicillin-streptomycin (10,000 U/mL/10000 μg/mL), G-418 (750 μg/mL), L-glutamine (2 mM) and sodium bicarbonate solution (7.5% v/v). At ˜90% confluence cells were harvested for experiments by detachment with a 2:1 (v/v) mixture of Detachin (BMS Biotechnology) and 0.25% (w/v) trypsin-EDTA. Cells were diluted to a density of 3.5-4.5×10^6 cells/mL with media consisting of CHO-S-SFM II (Sigma), 25 mM HEPES (Sigma) and Soy bean trypsin inhibitor (Sigma).
FRT-TMEM16A cells were whole-cell patch clamped using an automated planar patch clamp system (Qpatch, Sophion). Briefly, once high resistance (GOhm) seals were established between the cells and the planar recording array the patch was ruptured using suction pulses to establish the whole-cell recording configuration of the patch clamp technique. The assay employed the following solutions (all reagents Sigma): Intracellular solution (mM): N-methyl-D-glucamine 130, CaCl2 18.2, MgCl2 1, HEPES 10, EGTA 10, BAPTA 20, Mg-ATP 2, pH 7.25, 325 mOsm with sucrose.
Extracellular solution (mM): N-methyl-D-glucamine 130, CaCl2 2, MgCl2 1, HEPES 10, pH 7.3, 320 mOsm with sucrose.
The intracellular solution buffers intracellular calcium at levels required to give ˜20% activation of the maximal TMEM16A mediated current (EC20 for calcium ions). Cells were voltage clamped at a holding potential of −70 mV and a combined voltage step (to +70 mV)/ramp (−90 my to +90 mV) was applied at 0.05 Hz. After a period of current stabilisation test compounds, solubilised in 100% (v/v) DMSO and subsequently diluted into extracellular solution, were applied to generate a cumulative concentration response curve. Each concentration of test compound was incubated for 5 minutes before addition of the next concentration. After the final concentration was tested a supramaximal concentration of either a known active positive modulator or the TMEM16A inhibitor, CaCCinhA01 (Del La Fuente et al, 2008) was added to define the upper and lower limits of the assay.
Compound activity was quantified by measuring the increase in current upon compound addition and expressing this as a percentage increase of baseline TMEM16A current level. Percentage increases in current were determined for each concentration and the data plotted as a function of concentration using either the Qpatch software or Graphpad Prism v6.05 providing the concentration which gave 50% of its maximal effect (EC50) and maximum efficacy (percentage of baseline increase).
In FIG. 1, IBL equals baseline current, I[#1] equals the peak current during test compound concentration 1 incubation period and so on.
Peak TMEM16A current at +70 mV was plotted as a function of time over the assay period. Baseline current (IBL) was measured after a period of stabilisation. The increase in current for each compound addition was determined by taking the peak current during the incubation period and subtracting the current from the previous recording period and then expressing this as a percentage of the baseline current. […]

Chain of human TMEM16A (TMEM16Aabc variant) (Q5XXA6 with tags, fused parts or gaps DEL476-501): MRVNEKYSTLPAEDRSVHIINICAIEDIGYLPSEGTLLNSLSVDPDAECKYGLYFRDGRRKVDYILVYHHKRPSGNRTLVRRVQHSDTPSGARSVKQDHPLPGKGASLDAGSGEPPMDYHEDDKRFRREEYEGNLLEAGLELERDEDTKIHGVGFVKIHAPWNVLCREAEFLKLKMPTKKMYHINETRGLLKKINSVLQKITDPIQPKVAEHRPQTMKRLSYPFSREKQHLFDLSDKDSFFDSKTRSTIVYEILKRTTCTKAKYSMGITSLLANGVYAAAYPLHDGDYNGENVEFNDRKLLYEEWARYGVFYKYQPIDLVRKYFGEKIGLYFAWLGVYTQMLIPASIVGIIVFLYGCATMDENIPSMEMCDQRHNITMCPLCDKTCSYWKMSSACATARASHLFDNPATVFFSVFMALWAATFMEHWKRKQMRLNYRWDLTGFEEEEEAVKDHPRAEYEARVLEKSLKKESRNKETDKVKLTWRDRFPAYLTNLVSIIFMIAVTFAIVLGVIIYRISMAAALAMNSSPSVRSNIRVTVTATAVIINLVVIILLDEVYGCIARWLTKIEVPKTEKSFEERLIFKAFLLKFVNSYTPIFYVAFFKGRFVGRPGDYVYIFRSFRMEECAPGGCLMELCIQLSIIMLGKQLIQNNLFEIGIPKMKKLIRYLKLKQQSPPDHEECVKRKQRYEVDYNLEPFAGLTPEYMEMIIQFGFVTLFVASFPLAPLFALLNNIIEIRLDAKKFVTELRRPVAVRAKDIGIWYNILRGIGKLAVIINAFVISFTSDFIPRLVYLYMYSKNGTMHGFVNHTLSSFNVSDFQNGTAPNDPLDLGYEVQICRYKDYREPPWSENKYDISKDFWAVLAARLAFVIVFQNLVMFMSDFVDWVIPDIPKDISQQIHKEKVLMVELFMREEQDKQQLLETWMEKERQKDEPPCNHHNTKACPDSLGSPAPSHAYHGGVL

SMILES	% Potentiation @ 3.33 μM Avg [%]	EC50 [nM]
CC(C)(C)NC(=O)c1cccc(NC(=O)Cc2ccccc2O)c1 [Example 4.3, N-tert-Butyl-3-[[2-(2-hydroxyphenyl)acetyl]amino] benzamide]	151	1530
O=C(Cc1cc(Cl)ccc1O)Nc1ccnc(C(=O)NC23CCC(F)(C2)C3)c1 [Example 44, 4-[[2-(5-Chloro-2-hydroxy-phenyl)acetyl]amino]-N-(4-fluoro-1-bicyclo[2.1.1]hexanyl)pyridine-2-carboxamide]	377	50
N#CC1(NC(=O)c2cc(NC(=O)Cc3cc(F)ccc3O)ccn2)CCOCC1 [Example 48.1, N-(4-Cyanotetrahydropyran-4-yl)-4-[[2-(5-fluoro-2-hydroxy-phenyl)acetyl]amino] pyridine-2-carboxamide]	185	420
COC(=O)CC1(NC(=O)c2cc(NC(=O)Cc3cc(Cl)ccc3O)ccn2)CCOCC1 [Example 47.1, Methyl2-[4-[[4-[[2-(5-chloro-2-hydroxy-phenyl)acetyl]amino]pyridine-2-carbonyl]amino]tetrahydropyran-4-yl]acetate]	156	1920
O=C(Cc1cc(Cl)ccc1O)Nc1ccnc(C(=O)NCc2ccccc2)c1 [Example 35.15, N-Benzyl-4-[[2-(5-chloro-2-hydroxy-phenyl)acetyl]amino]pyridine-2-carboxamide]	158	150
CC(C(=O)Nc1cccc(C(=O)NC(C)(C)C)c1)c1ccccc1O (stereo not shown) [Example 2.7, N-tert-Butyl-3-[2-(2-hydroxyphenyl)propanamido]benzamide]	51	8190
CC(C)(C#N)NC(=O)c1cc(NC(=O)c2ccccc2-n2cccn2)ccn1 [Example 83.15, N-(1-Cyano-1-methyl-ethyl)-4-[(2-pyrazol-1-ylbenzoyl)amino]pyridine-2-carboxamide]	-10	
COc1ccccc1-c1cc(C(=O)Nc2ccnc(C(=O)NC(C)(C)C#N)c2)no1 [Example 83.27, N-[2-[(1-Cyano-1-methyl-ethyl)carbamoyl]-4-pyridyl]-5-(2-methoxyphenyl)isoxazole-3-carboxamide]	-11	
CC(C)(C)NC(=O)c1cc(NC(=O)[C@@H]2CCc3ccccc32)ccn1 (single isomer, unassigned) [Example 21b, N-tert-Butyl-4-[[(1R)-indane-1-carbonyl]amino]pyridine-2-carboxamide or N-tert-Butyl-4-[[(1S)-indane-1-carbonyl]amino]pyridine-2-carboxamide]	164	1080
O=C(Cc1cc(Cl)ccc1O)Nc1ccnc(C(=O)NC2(CO)CCOC2)c1 (racemic) [Example 35, 4-[[2-(5-Chloro-2-hydroxy-phenyl)acetyl]amino]-N-[3-(hydroxymethyl)tetrahydrofuran-3-yl]pyridine-2-carboxamide]	180	190
Cc1cccc(CC(=O)Nc2ccnc(C(=O)NC(C)(C)C)c2)c1 [Example 5.14, N-tert-Butyl-4-[[2-(m-tolyl)acetyl]amino]pyridine-2-carboxamide]	128	760
CC(C)(C#N)NC(=O)c1cc(NC(=O)Cc2ccc(C(C)(C)C)c(O)c2)ccn1 [Example 93.4, 4-[[2-(4-tert-Butyl-3-hydroxy-phenyl)acetyl]amino]-N-(1-cyano-1-methyl-ethyl)pyridine-2-carboxamide]	476	70
O=C(Cc1ccccc1Cl)Nc1ccnc(C(=O)NC2CC2(F)F)c1 (stereo not shown) [Example 30.6, 4-[[2-(2-Chlorophenyl)acetyl]amino]-N-(2,2-difluorocyclopropyl)pyridine-2-carboxamide]	80	
COc1cccc(F)c1CC(=O)Nc1cccc(C(=O)NC(C)(C)C)c1 [Example 4.7, N-tert-Butyl-3-[[2-(2-fluoro-6-methoxy-phenyl)acetyl]amino]benzamide]	68	
CC1(NC(=O)c2cc(NC(=O)Cc3cc(C(C)(C)C)ccc3O)ccn2)CCC1 [Example 3.6a, 4-[[2-(5-tert-Butyl-2-hydroxy-phenyl)acetyl]amino]-N-(1-methylcyclobutyl)pyridine-2-carboxamide]	546	370
CC(C)(C#N)NC(=O)c1cc(NC(=O)c2cccc3ncsc23)ccn1 [Example 83.30, N-[2-[(1-Cyano-1-methyl-ethyl)carbamoyl]-4-pyridyl]-1,3-benzothiazole-7-carboxamide]	93	

Further lines, with some results ahead:

% Potentiation @ 3.33 μM Avg [%]	SMILES	EC50 [nM]
108	CC(C)(C)NC(=O)c1cc(NC(=O)Cc2cc(-c3ccccc3)ccc2O)ccn1 [Example 26, N-tert-Butyl-4-[[2-(2-hydroxy-5-phenyl-phenyl)acetyl]amino]pyridine-2-carboxamide]	
97	CC(C)(C)NC(=O)c1cc(NC(=O)NCc2ccc(Cl)cc2)ccn1 [Example 64.8, N-tert-butyl-4-[(4-chlorophenyl)methylcarbamoylamino]pyridine-2-carboxamide]	
138	CC(CO)(CO)NC(=O)c1cc(NC(=O)Cc2cc(Cl)ccc2O)ccn1 [Example 35.4, 4-[[2-(5-Chloro-2-hydroxy-phenyl)acetyl]amino]-N-[2-hydroxy-1-(hydroxymethyl)-1-methyl-ethyl]pyridine-2-carboxamide]	
87	N#CC1(NC(=O)c2cc(NC(=O)Cc3cc(F)ccc3Cl)ccn2)CC1 [Example 23.2, 4-[[2-(2-Chloro-5-fluoro-phenyl)acetyl]amino]-N-(1-cyanocyclopropyl)pyridine-2-carboxamide]	
97	O=C(Cc1cc(Cl)ccc1O)Nc1ccnc(C(=O)NCCCOc2ccccc2)c1 [Example 35.7, 4-[[2-(5-Chloro-2-hydroxy-phenyl)acetyl]amino]-N-(3-phenoxypropyl)pyridine-2-carboxamide]	
0	CC(C)(C)NC(=O)c1cc(NC(=O)Nc2c[nH]c3ccccc23)ccn1 [Example 64.6, N-tert-butyl-4-(1H-indol-3-ylcarbamoylamino)pyridine-2-carboxamide]	
67	CC(C)(C)NC(=O)c1cc(NC(=O)C2COc3ccccc32)ccn1 (stereo not shown) [Example 5.25, N-tert-Butyl-4-(2,3-dihydrobenzofuran-3-carbonylamino)pyridine-2-carboxamide]	
34	CC(C)(C)NC(=O)c1cc(NC(=O)Cc2cc(CCCO)ccc2O)ccn1 [Example 75, N-tert-Butyl-4-[[2-[2-hydroxy-5-(3-hydroxypropyl)phenyl]acetyl]amino]pyridine-2-carboxamide]	
10	CC(C)(C)NC(=O)c1cc(NC(=O)NCc2ccc(O)cc2)ccn1 [Example 65.4, N-tert-Butyl-4-[(4-hydroxyphenyl)methylcarbamoylamino]pyridine-2-carboxamide]	
52	CC(C)(C)NCc1cc(O)c(CC(=O)Nc2ccnc(C(=O)NC(C)(C)C)c2)cc1Cl [Example 27.1, N-tert-Butyl-4-[[2-[4-[(tert-butylamino)methyl]-5-chloro-2-hydroxy-phenyl]acetyl]amino]pyridine-2-carboxamide]	
